Measurements from patent publication US20160130224A1, “Novel Pyrrole Derivatives” (priority 2013, published 2016).
Counter-ions that a name gives are not always drawn. Like-named read-outs stand apart in the source and are kept apart here.

Key:
[1] = target: pneumolysin (Streptococcus pneumoniae serotype 2, UniProt Q04IN8); assay: Inhibition of the haemolytic activity of pneumolysin (sheep erythrocytes); type: cell-based
Method: The basis of this assay is that when pneumolysin is added to red blood cells, it induces their lysis and leads to the release of haemoglobin. In the presence of an inhibitory compound, pneumolysin-induced lysis is abolished, the red blood cells pellet at the bottom of the microtitre plate well and the supernatant is clear. However, if the compound is not inhibitory, the red blood cells are lysed and haemoglobin is released into the supernatant.
Test compound solutions (typically at 5 mM in DMSO) were diluted 1:1 in 100% DMSO. The compounds were then two-fold serially diluted in 100% DMSO across 11 wells of 96-well round-bottomed microtitre plate. PBS was then added to all the wells to achieve a 1:10 dilution of the compound in PBS. Pneumolysin was then added at a concentration equal to its LD100. Plates were then incubated at 37° C. for 30-40 min. After the incubation period, an equal volume of 4% (v/v) sheep erythrocyte suspension was added to each well and the plates incubated again at 37° C., for at least 30 min. Controls with only erythrocytes in PBS (control for no lysis) or erythrocytes plus pneumolysin (control for lysis) were prepared following the same procedure. Following the incubation with the erythrocytes, the Absorbance at 595 nm of each well was measured and the data used to determine the IC50 for each test compound. The IC50 values were determined using non-linear regression curve fitting. For that, the Log of the concentrations of the test compound was plotted against the percentage inhibition, estimated from the A595 values, followed by fitting a Hill Slope to the data.

[2] = Chemical stability assessment in PBS at 37.5° C. (HPLC); type: physicochemical; settings: buffer, pH 6.2, read-out: Chemical stability at pH 6.2-7.2 (t1/2) (converted)
Method: (§1) Stability studies were carried out by dissolving 1-2 mg of compound in DMSO (1 mL) followed by addition of 0.4 mL of the resulting solution to stirred PBS solution (9.6 mL) at 37.5° C. A sample (ca. 0.5 mL) was immediately taken for HPLC analysis. Further samples were then taken for analysis at various timepoints thereafter. Half-lives were determined from the decrease in concentration of compound with respect to time.
as §1, with “performed” for “carried out”, “ml)” for “mL)”, “ml” for “mL”, “PBS” for “PBS solution”, “(˜0.5 ml)” for “(ca. 0.5 mL)”, “time-points” for “timepoints”

[3] = Solubility testing in PBS or 0.9% saline; type: physicochemical; settings: for solubility: aqueous buffer, thermodynamic from solid, PBS
Method: Solubility studies were performed by charging a vial with 5-10 mg of compound followed by the 40 addition of PBS solution or 0.9% saline to achieve a concentration of 100 mg/ml. If solubility was not observed the solution was diluted to concentrations of 50 mg/ml, 25 mg/ml and 4 mg/ml consecutively until complete solubility was observed.

[4] = Conversion of prodrug to parent active compound in mouse plasma (LC-MS/MS); type: in vitro ADME; settings: 37° C., 10 μM start; for [ ] (μM) Prodrug remaining, t0 min.: 0 min; for [ ] (μM) Prodrug remaining, t15 min.: 15 min; for [ ] (μM) Prodrug remaining, t30 min.: 30 min; for [ ] (μM) Prodrug remaining, t60 min.: 60 min; for [ ] (μM) Prodrug remaining, t120 min.: 120 min
Method: (§2) The samples were then analysed by LC-MS/MS to obtain the amount of parent active compound appearing and prodrug derivative remaining over time.
(§3) Prodrug derivatives were assessed in the mouse, rat or human plasma stability assay at a concentration of 10 μM. Test compounds were diluted in DMSO to a final stock concentration of 10 mM. For the purpose of the assay, the stocks prepared were further diluted in DMSO to a concentration of 400 μM and 5 μL were added to 195 μL of mouse, rat or human plasma (pH 7.4) and then incubated at 37° C. The final concentration of DMSO in the plate was 2.5% (v/v). Reactions were terminated at 0, 15, 30, 60 and 120 min after incubation by adding 400 μl of acetonitrile containing 0.55 μM metoprolol and 1% (v/v) formic acid. The plate was then centrifuged at 3000 rpm, for 45 min, at 4° C. 80 μL of supernatant were transferred into a conical bottom 96 well glass coated plate. 40 μL of water were added prior to analysis for prodrug derivative and active species by LC-MS/MS. This assay was performed by a contract research organisation, Cyprotex Discovery Limited, UK, at the request of the inventors at Leicester.
(§4) (1) The parent active compound was quantified using a 6 point calibration curve prepared in deactivated mouse, rat or human plasma. (2) The percentage of prodrug compound remaining at each time point relative to 0 min sample was calculated from LC-MS/MS peak area ratios (compound peak area/internal standard peak area). This percentage was then used to determine the concentration of the prodrug compound at each time point in reference to the starting concentration (10 μM) at time 0 min.

[5] = Conversion of prodrug to parent active compound in human plasma (LC-MS/MS); type: in vitro ADME; settings: 37° C., 10 μM start; for [ ] (μM) Prodrug remaining, t0 min.: 0 min; for [ ] (μM) Prodrug remaining, t15 min.: 15 min; for [ ] (μM) Prodrug remaining, t30 min.: 30 min; for [ ] (μM) Prodrug remaining, t60 min.: 60 min
Method: as §2, §3, §4

[6] = Conversion of prodrug to parent active compound in rat plasma (LC-MS/MS); type: in vitro ADME; settings: 37° C., 10 μM start; for [ ] (μM) Prodrug remaining, t0 min.: 0 min; for [ ] (μM) Prodrug remaining, t15 min.: 15 min; for [ ] (μM) Prodrug remaining, t30 min.: 30 min; for [ ] (μM) Prodrug remaining, t60 min.: 60 min; for [ ] (μM) Prodrug remaining, t120 min.: 120 min
Method: as §2, §3, §4

Sequence of pneumolysin (Q04IN8 whole entry): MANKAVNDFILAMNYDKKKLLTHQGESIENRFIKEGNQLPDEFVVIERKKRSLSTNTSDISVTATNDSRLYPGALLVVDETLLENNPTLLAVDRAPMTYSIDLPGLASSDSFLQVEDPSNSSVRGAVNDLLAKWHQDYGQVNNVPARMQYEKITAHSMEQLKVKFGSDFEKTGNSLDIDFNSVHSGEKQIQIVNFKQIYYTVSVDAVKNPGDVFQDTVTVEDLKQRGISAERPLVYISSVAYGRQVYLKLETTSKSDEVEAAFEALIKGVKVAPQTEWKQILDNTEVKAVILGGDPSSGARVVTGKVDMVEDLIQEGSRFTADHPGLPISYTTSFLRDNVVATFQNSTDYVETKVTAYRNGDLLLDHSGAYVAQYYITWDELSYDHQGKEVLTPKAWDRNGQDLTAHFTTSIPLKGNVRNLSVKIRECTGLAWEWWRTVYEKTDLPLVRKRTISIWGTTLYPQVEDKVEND

Compound	half-life [2]	IC50 [1]	[ ] (μM) Prodrug remaining, t0 min. [4]	[ ] (μM) Prodrug remaining, t15 min. [4]	[ ] (μM) Prodrug remaining, t30 min. [4]	[ ] (μM) Prodrug remaining, t60 min. [4]	[ ] (μM) Prodrug remaining, t120 min. [4]	further results
CCOC(=O)c1c(O)c(O)c(C(=O)N(C)C)n1-c1ccc(OC)cc1 [UL1-012, Ethyl 5-(dimethylcarbamoyl)-3,4-dihydroxy-1-(4-methoxyphenyl)-1H-pyrrole-2-carboxylate]	1.02 h							IC50 ([1]; Table 1, pneumolysin at LD100, sheep erythrocytes, 37° C., read-out: IC50): 200 nM; IC50 ([1]; Table 2, pneumolysin at LD100, sheep erythrocytes, 37° C., read-out: IC50): 200 nM; Solubility in 0.9% (w/v) saline, pH 6.5 or PBS pH 7.2 ([3]; result in words): Not soluble
COc1ccc(-n2c(C(=O)N(C)C)c(O)c(O)c2C(=O)N2CCN(C)CC2)cc1 [UL1-027, 3,4-Dihydroxy-1-(4-methoxyphenyl)-N,N-dimethyl-5-(4-methylpiperazine-1-carbonyl)-1H-pyrrole-2-carboxamide]		200 nM						
COc1ccc(-n2c(C(=O)N(C)C)c(OC(=O)C(C)C)c(OC(=O)C(C)C)c2C(=O)N(C)C)cc1 [UL1-114, 2,5-Bis(dimethylcarbamoyl)-1-(4-methoxyphenyl)-1H-pyrrole-3,4-diyl bis(2-methylpropanoate)]		19500 nM						
COc1ccc(-n2c(C(=O)N(C)C)c(OC(=O)C(C)C)c(OC(=O)C(C)C)c2C(=O)N2CCN(C)CC2)cc1.Cl [UL6-002, 2-(Dimethylcarbamoyl)-1-(4-methoxyphenyl)-5-(4-methylpiperazine-1-carbonyl)-1H-pyrrole-3,4-diyl bis(2-methylpropanoate) hydrochloride]		2000 nM	10.00 µM	0.00 µM	0.00 µM	0.02 µM	0.00 µM	
COc1ccc(-n2c(C(=O)N(C)C)c(OC(=O)C(C)(C)C)c(OC(=O)C(C)(C)C)c2C(=O)N2CCN(C)CC2)cc1 [UL6-004, 2-(Dimethylcarbamoyl)-1-(4-methoxyphenyl)-5-(4-methylpiperazine-1-carbonyl)-1H-pyrrole-3,4-diyl bis(2,2-dimethylpropanoate) hydrochloride]		1600 nM	10.00 µM	10.00 µM	9.88 µM	9.80 µM	9.63 µM	
COc1ccc(-n2c(C(=O)N(C)C)c(OC(=O)c3cccc(COP(=O)(O)O)c3)c(OC(=O)c3cccc(COP(=O)(O)O)c3)c2C(=O)N(C)C)cc1.[Na+].[Na+] [UL6-006, Sodium ((((2,5-bis(dimethylcarbamoyl)-1-(4-methoxyphenyl)-1H-pyrrole-3,4-diyl)bis(oxy))bis(carbonyl))bis(3,1-phenylene))bis(methylene) bis(hydrogenphosphate)]	29.5 h	300 nM	10.00 µM	2.05 µM	0.79 µM	0.10 µM	0.04 µM	solubility ([3]; pH 5-6): ≥ 50 mg/mL; [ ] (μM) Prodrug remaining, t0 min. [5]: 10.00 µM; [ ] (μM) Prodrug remaining, t15 min. [5]: 2.15 µM; [ ] (μM) Prodrug remaining, t30 min. [5]: 0.05 µM; [ ] (μM) Prodrug remaining, t60 min. [5]: 0.01 µM; [ ] (μM) Prodrug remaining, t0 min. [6]: 10.00 µM; [ ] (μM) Prodrug remaining, t15 min. [6]: 8.90 µM; [ ] (μM) Prodrug remaining, t30 min. [6]: 1.17 µM; [ ] (μM) Prodrug remaining, t60 min. [6]: 0.21 µM; [ ] (μM) Prodrug remaining, t120 min. [6]: 0.07 µM
CCOC(=O)c1c(OC(=O)c2ccc(COP(=O)([O-])O)cc2)c(OC(=O)c2ccc(COP(=O)([O-])O)cc2)c(C(=O)N(C)C)n1-c1ccc(OC)cc1.[Na+].[Na+] [UL6-008, Sodium ((((2-(dimethylcarbamoyl)-5-(ethoxycarbonyl)-1-(4-methoxyphenyl)-1H-pyrrole-3,4-diyl)bis(oxy))bis(carbonyl))bis(4,1-phenylene))bis(methylene) bis(hydrogenphosphate)]	144 h	1900 nM	10.00 µM	4.53 µM	1.70 µM	0.47 µM	0.09 µM	solubility ([3]; pH 6): ≥ 100 mg/mL; [ ] (μM) Prodrug remaining, t0 min. [5]: 10.00 µM; [ ] (μM) Prodrug remaining, t15 min. [5]: 4.89 µM; [ ] (μM) Prodrug remaining, t30 min. [5]: 5.10 µM; [ ] (μM) Prodrug remaining, t60 min. [5]: 6.06 µM; [ ] (μM) Prodrug remaining, t120 min. ([5]; 120 min): 4.52 µM; [ ] (μM) Prodrug remaining, t0 min. [6]: 10.00 µM; [ ] (μM) Prodrug remaining, t15 min. [6]: 2.90 µM; [ ] (μM) Prodrug remaining, t30 min. [6]: 1.00 µM; [ ] (μM) Prodrug remaining, t60 min. [6]: 0.21 µM; [ ] (μM) Prodrug remaining, t120 min. [6]: 0.07 µM
